Here are results for 25 compounds from PubChem BioAssay (NCI).

Test systems include A498 renal; SK-MEL-2 melanoma; U251 CNS; RXF 393 renal; HOP-92 NSCLC; HT29 colon; UACC-62 melanoma; CAKI-1 renal; SK-MEL-28 melanoma.
Holding throughout (experiment): NCI anticancer screen, dose series, 48 h

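48-hour exposure; five concentrations; linearly interpolated endpoints. TGI marks complete inhibition of growth.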 Where a SMILES comes first, the peptide text is derived from it. [ ]: non-standard residue; d: D form. The star is where a group is joined. Hyp = O=C(O)[CH]1C[CH](O)CN1; Cbz = O=C(OCc1ccccc1)*

Regarding `CCOC1Oc2ccccc2-c2nc(N)ncc21` (stereo not drawn), the TGI in the experiment with A498 renal is 81.3 µM; with SK-MEL-2 melanoma it was above 100 µM; in the experiment with U251 CNS, above 100 µM; in the experiment on RXF 393 renal, above 100 µM; with HOP-92 NSCLC, above 100 µM; with HT29 colon it was above 100 µM. The TGI in the experiment with UACC-62 melanoma and with CAKI-1 renal was above 100 µM in each case.
Regarding `O=C(O)c1ccc2[nH]c(=O)oc2c1`, the TGI in the experiment on A498 renal, in the experiment with SK-MEL-2 melanoma, in the experiment on U251 CNS, in the experiment with RXF 393 renal, in the experiment with HT29 colon and with SK-MEL-28 melanoma was above 100 µM in each case. In addition, the TGI in the experiment on UACC-62 melanoma and in the experiment with CAKI-1 renal was above 100 µM in each case.
Turning to `O=[N+]([O-])c1ccc2nc(/C=C(\O)c3ccccc3)c(NC34CC5CC(CC(C5)C3)C4)nc2c1`, the TGI in the experiment with A498 renal, with SK-MEL-2 melanoma, with U251 CNS, with RXF 393 renal, with HT29 colon and in the experiment with SK-MEL-28 melanoma was above 10 µM throughout. Further, the TGI in the experiment on CAKI-1 renal was above 10 µM.
On to `COc1ccc(OC)c2c1ccc1c(C)c3ccccc3c(C)c12`, for which the TGI in the experiment with A498 renal, with SK-MEL-2 melanoma, in the experiment with U251 CNS, in the experiment with HT29 colon, with SK-MEL-28 melanoma and in the experiment with UACC-62 melanoma was above 100 µM in each case. Besides, in the experiment on CAKI-1 renal, the TGI was above 100 µM.
In the case of `Nc1nc(Cl)cc(NCC2(CO)CC=CC2)n1`, the TGI in the experiment on SK-MEL-2 melanoma, in the experiment with U251 CNS, in the experiment with RXF 393 renal, in the experiment on HOP-92 NSCLC, in the experiment with HT29 colon and with SK-MEL-28 melanoma was above 100 µM throughout. The TGI with UACC-62 melanoma and with CAKI-1 renal was above 100 µM in each case.
With `C[C@]12O[C@@]3(C)O[C@@]3(C)[C@]3(C)O[C@]3(C)[C@@]1(C)O2`, the TGI in the experiment with A498 renal, with SK-MEL-2 melanoma, in the experiment on U251 CNS, in the experiment with HOP-92 NSCLC, in the experiment on HT29 colon and in the experiment with SK-MEL-28 melanoma was above 100 µM each time. In addition, the TGI with UACC-62 melanoma and in the experiment with CAKI-1 renal was above 100 µM throughout.
In the case of `O=C(O)c1ccc(C2=Nc3cccc4cccc(c34)N2)cc1`, the TGI with SK-MEL-2 melanoma, in the experiment with U251 CNS, in the experiment on RXF 393 renal, in the experiment on HOP-92 NSCLC, in the experiment with HT29 colon and with SK-MEL-28 melanoma was above 100 µM throughout. In addition, the TGI in the experiment with UACC-62 melanoma and with CAKI-1 renal was above 100 µM throughout.
In the case of `CC(O)/C=C/C1OC(=O)CC1Nc1ccc(C=O)cc1` (stereo not drawn), the TGI is above 100 µM with A498 renal; 74.7 µM with SK-MEL-2 melanoma; above 100 µM in the experiment on U251 CNS; above 100 µM with RXF 393 renal; 66.5 µM with HOP-92 NSCLC; above 100 µM with HT29 colon. Further, the TGI with SK-MEL-28 melanoma is above 100 µM; in the experiment with UACC-62 melanoma, 58.1 µM.
As for `O=C(Cn1c2c(c3ccccc31)CCCC2)N1CCOCC1`, the TGI with A498 renal, with SK-MEL-2 melanoma, in the experiment on HOP-92 NSCLC, in the experiment with HT29 colon, in the experiment with UACC-62 melanoma and in the experiment on CAKI-1 renal was above 100 µM in each case.
Regarding `CNc1cc(Cl)ccc1C(=O)N1CCC[C@H]1CO`, the TGI with A498 renal, in the experiment with SK-MEL-2 melanoma, with U251 CNS, in the experiment on RXF 393 renal, with HT29 colon and with SK-MEL-28 melanoma was above 100 µM throughout. In addition, the TGI in the experiment with UACC-62 melanoma and in the experiment on CAKI-1 renal was above 100 µM throughout.
Regarding `N#CCc1nc(-c2cc3ccc(O)cc3oc2=O)cs1`, the TGI is 66 µM in the experiment with SK-MEL-2 melanoma; above 100 µM in the experiment on U251 CNS; above 100 µM with RXF 393 renal; above 100 µM with HOP-92 NSCLC; above 100 µM with HT29 colon; above 100 µM in the experiment with SK-MEL-28 melanoma. The TGI was 63.3 µM with UACC-62 melanoma and above 100 µM in the experiment on CAKI-1 renal.
Regarding `CCCCCCCCCc1cc(=O)c2c(O)cc(O)cc2o1`, the TGI in the experiment on A498 renal is 35.2 µM; in the experiment with SK-MEL-2 melanoma, 34.3 µM; with U251 CNS, 77.2 µM; with RXF 393 renal, 31.3 µM; with HOP-92 NSCLC, 33.7 µM; with HT29 colon, 34.4 µM. Besides, the values for the TGI in the experiment with SK-MEL-28 melanoma and in the experiment on CAKI-1 renal were 52.2 µM and above 100 µM, respectively.
For the compound `CN(C)c1ccc(/C=C2\C[C@H]3[C@@H]4CC=C5C[C@@H](O)CC[C@]5(C)[C@H]4CC[C@]3(C)[C@H]2O)cc1`, the TGI in the experiment with A498 renal worked out at 31.5 µM; in the experiment with SK-MEL-2 melanoma, 42.9 µM; with U251 CNS, 22.6 µM; in the experiment with RXF 393 renal, 68 µM; in the experiment with HT29 colon it was 27.5 µM; in the experiment on SK-MEL-28 melanoma it was 44.9 µM. This compound also yielded a TGI in the experiment with UACC-62 melanoma of 30.2 µM.
`COc1ccc(-c2n[nH]c3nc4ccccc4n3c2=O)cc1`: the TGI in the experiment with A498 renal, with SK-MEL-2 melanoma, with U251 CNS, with RXF 393 renal, in the experiment with HOP-92 NSCLC and in the experiment with HT29 colon was above 100 µM in each case. For the same compound, the TGI in the experiment with SK-MEL-28 melanoma and in the experiment on CAKI-1 renal was above 100 µM throughout.
`COC(=O)C(Cc1ccccc1)NP(=O)(O)OCC1OC(n2ccc(N)nc2=O)C(O)C1O` (stereo not drawn): the TGI with A498 renal, in the experiment with SK-MEL-2 melanoma, in the experiment with U251 CNS, in the experiment on HOP-92 NSCLC, in the experiment on HT29 colon and in the experiment on SK-MEL-28 melanoma was above 100 µM each time. Further, the TGI in the experiment on UACC-62 melanoma and with CAKI-1 renal was above 100 µM each time.
For the compound `CNC(=O)OCC1=C(COC(=O)NC)CN(c2ccc(OC)cc2)C1`, the TGI in the experiment with A498 renal was 3.9 µM; in the experiment with SK-MEL-2 melanoma, above 100 µM; in the experiment with U251 CNS, above 100 µM; in the experiment on RXF 393 renal, above 100 µM; in the experiment with HOP-92 NSCLC, above 100 µM; in the experiment with HT29 colon it was above 100 µM. The TGI with SK-MEL-28 melanoma and in the experiment with UACC-62 melanoma was above 100 µM each time.
Regarding `COc1cc([N+](=O)[O-])cc2c1NC(=O)C2(C)SC` (stereo not drawn), the TGI in the experiment on A498 renal, in the experiment on SK-MEL-2 melanoma, in the experiment on U251 CNS, in the experiment with RXF 393 renal, in the experiment on HT29 colon and in the experiment on SK-MEL-28 melanoma was above 100 µM in each case. Further, the TGI in the experiment with UACC-62 melanoma and with CAKI-1 renal was above 100 µM in each case.
As to `Cc1[nH]c2[nH]c(=S)nc(NC(N)=S)c2c1Cc1ccccc1`, the TGI with A498 renal is above 100 µM; in the experiment with SK-MEL-2 melanoma, above 100 µM; with U251 CNS it was above 100 µM; with HOP-92 NSCLC, above 100 µM; in the experiment on HT29 colon, 52 µM; in the experiment with SK-MEL-28 melanoma, 48.6 µM. For the same compound, the TGI in the experiment on UACC-62 melanoma and in the experiment on CAKI-1 renal was above 100 µM each time.
For `COc1cccc(C=C(C#N)C#N)c1OC`, the TGI in the experiment with U251 CNS, in the experiment on RXF 393 renal, in the experiment with HOP-92 NSCLC, in the experiment on HT29 colon, with SK-MEL-28 melanoma and in the experiment on UACC-62 melanoma was above 100 µM each time. This compound also showed a TGI with CAKI-1 renal above 100 µM.
As to `CN(C)c1ccc(C2=C([O-])c3cc(-[n+]4ccccc4)ccc3C2=O)cc1`, the TGI in the experiment with A498 renal, in the experiment with U251 CNS, with RXF 393 renal, in the experiment with HOP-92 NSCLC, in the experiment on HT29 colon and in the experiment with SK-MEL-28 melanoma was above 100 µM in each case. In addition, the TGI in the experiment with CAKI-1 renal was above 100 µM.
On to `NC(=O)CNC(=O)C1CC(O)CN1C(=O)C1CCCN1C(=O)OCc1ccccc1` (stereo not drawn) (Cbz-Pro-[Hyp]-Gly-NH2; configuration not given here), for which the TGI in the experiment on A498 renal, with SK-MEL-2 melanoma, in the experiment on U251 CNS, with RXF 393 renal, with HT29 colon and in the experiment on SK-MEL-28 melanoma was above 100 µM throughout. In the experiment with UACC-62 melanoma, this compound had a TGI above 100 µM.
Regarding `OCCCN=C1N=C(Cl)/C(=C\c2ccccc2)N1`, the TGI in the experiment on A498 renal, with U251 CNS, in the experiment with RXF 393 renal, with HOP-92 NSCLC, in the experiment with HT29 colon and with SK-MEL-28 melanoma was above 100 µM each time. In addition, in the experiment with CAKI-1 renal, the TGI is above 100 µM.
Take `CCOC(=O)/C=C(\C(=O)OCC)n1cc(C)c(=O)n(Cc2cn(COCCOC(C)=O)nn2)c1=O`: the TGI amounted to 34.5 µM with SK-MEL-2 melanoma; 37.5 µM in the experiment with U251 CNS; 93.2 µM with RXF 393 renal; 3.91 µM in the experiment with HOP-92 NSCLC; 20.9 µM in the experiment with HT29 colon; 48.1 µM with SK-MEL-28 melanoma. Moreover, the TGI with UACC-62 melanoma came out at 33.8 µM; with CAKI-1 renal, 7.05 µM.
As for `CN1C(CC(O)c2ccccc2)CCCC1CC(O)(c1ccccc1)c1ccccc1` (stereo not drawn), the TGI was 28.4 µM with U251 CNS; 28.9 µM with RXF 393 renal; 31.8 µM in the experiment on HT29 colon; 30.9 µM with SK-MEL-28 melanoma; 40.7 µM in the experiment on UACC-62 melanoma; above 100 µM with CAKI-1 renal.
Take `O=C1c2ccccc2C(=O)c2c1sc1nc3ccccc3n21`: the TGI was found to be 23.3 µM in the experiment on A498 renal; 9.37 µM with U251 CNS; 3.31 µM with RXF 393 renal; 74.1 µM with HOP-92 NSCLC; 13.8 µM in the experiment on HT29 colon; 3.51 µM in the experiment on UACC-62 melanoma. Further, the TGI with CAKI-1 renal is 4.27 µM.
